Key:
[1] = tested on: rats fed a calcium-deficient diet; test: Effects on urinary excretion of calcium (metabolic cage); assay type: in vivo, rat; conditions: total for three days, 40 mL of water containing the substance, FIG. 2
Procedure: (§1) […]. Male Wistar rats weighing 200-250 g, and about 120 g especially in the experiment of studying calcium born absorption (Test Example 3), were used as an experimental animal.
Usually, calcium concentrations in blood are constantly maintained by biogenic homeostasis and it is difficult to utilize it as an index of calcium absorption. Accordingly, the urinary excretion of calcium was assayed in place of it.
Rats were kept in a metabolic cage and 40 mL of water containing calcium (Ca), Gum Arabic (GA), or Ca and GA (Ca+GA) was given for three days. […]. After recovering urine, urinary concentration of calcium and urine volume were measured.

[2] = tested on: rats fed a calcium-deficient diet; test: Effects on bone absorption of calcium (30-day oral administration); assay type: in vivo, rat; conditions: 30 days, 1 mg (Ca)/day, GA coadministered with Ca, compared with the Ca-treated group, FIG. 6
From the text: as §1
Next, it was studied whether the accelerating effect of GA on calcium absorption reaches bone absorption, and prevents the decease of calcium content in the bone, using rats fed a calcium-deficient diet.
Calcium (Ca-treated group), or calcium and GA ([Ca+GA]-treated group) were orally administered to rats for 30 days with an amount of 1 mg (ca)/day, and changes of hardness and mineral (Ca, Mg, P, Zn) content of the femur, or ALP in blood were observed. Rats were fed a calcium-deficient diet in order to eliminate an effect of calcium contained in the normal diet.

For `C[C@H](O)C(=O)[O-].C[C@H](O)C(=O)[O-].[Ca+2]` [Ca, calcium L-lactate], the “urinary excretion of calcium” value [1] was “not increased” and the ALP in blood [2] was “elevation of ALP in blood was observed”.
